In article PMC9780825, “Combining mKate2-Kv1.3 Channel and Atto488-Hongotoxin for the Studies of Peptide Pore Blockers on Living Eukaryotic Cells” (Toxins, 2022):
“Also recorded” adds a separate entry of the source. Residues, ends and D or L forms follow the SMILES beside them.

Key:
[1] = target: T1, K-ΔKv1.3 (N-terminally truncated human Kv1.3 tagged with mKate2) (Homo sapiens, UniProt P22001); test: Confocal imaging of A-HgTx binding and displacement, K-ΔKv1.3 in Neuro-2A cells; set-up: expressed in transfected cells; host or cells: HEK293 (transient transfection with pmKate2-KCNA3-del); settings: 2 nM A-HgTx
Method: Mouse Neuro-2A neuroblastoma cells were purchased from the Russian collection of cell cultures (Institute of Cytology, Saint Petersburg, Russia). Cells were cultured in DMEM (Paneco, Russia) supplemented with 10% fetal bovine serum (PAA Laboratories, Austria) and penicillin–streptomycin 100 U/mL. Cells were subcultured twice a week. Cells were plated at a density of 3×10^4 cells per well on cover glasses coated with poly-D-lysine and 24 h latter subjected to the transfection with plasmid pmKate2-KCNA3-del as described above.
Figure S5. Confocal imaging of A-HgTx interactions with K-ΔKv1.3channels transiently expressed in Neuro-2A cells. (A, B) Distri-
(20 nM) from the complexes with K-ΔKv1.3 at the membrane of cells. Scale bar is 20 µm. Green and red colors – fluorescence of A-
HgTx and K-ΔKv1.3, respectively.
Figure S6. Concentration dependence of A-HgTx binding to K-Kv1.3 on a cell membrane that was measured as the dependence of
Rav on the concentration L of A-HgTx added to HEK293 cells transiently transfected with K-Kv1.3.
(also on this page, place not known: Neuro -2A K -ΔKv1.3. A -HgTx K -ΔKv1.3 0.0 0.5 1.0 1.5 2.0 0.0 0.5 1.0 1.5 L, nM Rav) […]

[2] = target: T1, K-ΔKv1.3 (N-terminally truncated human Kv1.3 tagged with mKate2); test: Confocal imaging of A-HgTx binding and displacement, K-ΔKv1.3 in HEK293 cells; set-up: expressed in transfected cells; host or cells: HEK293 (transient transfection with pmKate2-KCNA3-del)
Method: (§1) Figure 4 Confocal imaging of A-HgTx interactions (green) with mKate2-tagged Kv1.3 channels (red) transiently expressed in HEK293 cells. (A–D) Binding (A,B) of A-HgTx (2 nM) to Kv1.3-K and its displacement (C,D) by HgTx1 (40 nM). (E–H) Binding (E,F) of A-HgTx (2 nM) to K-Kv1.3 and its displacement (G,H) by HgTx1 (40 nM). (I–L) Binding (I,J) of A-HgTx (2 nM) to K-ΔKv1.3 and its displacement (K,L) by HgTx1 (40 nM). (M,N) Control measurement of the binding of A-HgTx (2 nM) to intact (no transfection) HEK293 cells. (O,P) Control measurement of the background signal in the wavelength range corresponding to the A-HgTx emission (O) from HEK293 cells expressing K-ΔKv1.3 (without addition of A-HgTx). The scale bar is equal to 20 μm. (A,E,I,M,C,G,K,O) Distribution of A-HgTx. (B,F,J,N,D,H,L,P) Distribution of mKate2-tagged Kv1.3 channels.
(§2) KCNA3 gene encoding human Kv1.3 channel (hKv1.3, Accession number NP_002223.3) was a generous gift from Dr. A. Vassilevski. […]
(§3) Fluorescence of mKate2-fused hKv1.3 was excited at the 561 nm wavelength and recorded in the 650–700 nm range. Fluorescence of A-HgTx was excited at the 488 nm wavelength and recorded in the 495–535 nm range. Distributions of A-HgTx and mKate2 fluorescence in cells were imaged using sequential scanning to avoid interference of intrinsic cellular fluorescence excited at the 488 nm with the mKate2 fluorescence.

[3] = system: mKate2-tagged Kv1.3 channels; test: A-HgTx wash-off and effect on channel distribution, mKate2-tagged Kv1.3 in HEK293 cells; type: binding, human
Method: as §1
In A-HgTx binding experiments, cells were incubated with A-HgTx (0.15–4 nM) for 30 min (37 °C, 5% CO2) in the complete medium. […]
as §3

[4] = system: intact HEK293 cells that do not express mKate2-tagged Kv1.3; test: Control: A-HgTx binding to intact HEK293 cells; settings: 2 nM A-HgTx; no transfection; confocal imaging
Method: as §1, with “channels. […]” for “channels.”
as §3

[5] = target: T2, K-Kv1.3 (human Kv1.3 N-terminally tagged with mKate2) (Homo sapiens, UniProt P22001); test: Confocal imaging of A-HgTx binding and displacement, K-Kv1.3 in HEK293 cells
T2 construct: membrane expression of the full-length human Kv1.3 was poor in X. oocytes, deletion of N-terminal M1-D52 residues boosted; expressed in transfected cells; host or cells: HEK293 (transient transfection with pmKate2-KCNA3)
Method: as §1, §2, §3

[6] = target: T1, K-ΔKv1.3 (N-terminally truncated human Kv1.3 tagged with mKate2); test: Whole-cell patch-clamp, K-ΔKv1.3 expressed in Neuro-2A cells; type: cell-based; set-up: expressed in transfected cells; settings: N2a, +50 mV, 20–25 °C, pH 7.4, mean ± SEM
Method: The K-ΔKv1.3 channel and A-HgTx were characterized by a whole-cell patch-clamp technique. Taking into account that “the kinetic properties of the homomeric Kv channels are largely consistent across host cell lines” [42], we studied K-ΔKv1.3 presented at the membrane of mouse Neuro-2A neuroblastoma cells, which are routinely used in our electrophysiological experiments.
The ion currents were analyzed in the whole-cell configuration by depolarizing steps from −70 to 70 mV in 20 mV increments from a holding potential of −40 mV.
Test pulses having duration of 200 ms were applied stepwise with an interval of 20 s with a step of 20 mV from −70 to +70 mV then returning to a holding potential. […] Data were averaged (mean ± SEM) over ten (E) and twelve (F) cells.
(A,B) Representative series of currents before (A) and after addition of 2 nM A-HgTx (B). […]
K-ΔKv1.3-channel ion currents were recorded by the patch-clamp technique using an EPC-10 amplifier (HEKA Elektronik, Germany) in a standard whole-cell configuration. […]
Briefly, in 24–48 h after transfection, cover glasses with attached Neuro2a cells were placed in a chamber with an extracellular solution (mM): 140 NaCl, 2.8 KCl, 2 MgCl2, 2 CaCl2, 10 HEPES and 10 glucose (pH 7.4) and perfused continuously. Selection of cells for the measurements was guided by membrane fluorescence of K-ΔKv1.3. […]

[7] = system: Kv1.3-K (human Kv1.3 C-terminally tagged with mKate2); test: Confocal imaging of A-HgTx binding and displacement, Kv1.3-K in HEK293 cells
Method: as §1, with “channels. […]” for “channels.”
as §3

[8] = target: T1, K-ΔKv1.3 (N-terminally truncated human Kv1.3 tagged with mKate2); test: Fluorescent competitive binding assay (FCBA), displacement of A-HgTx from K-ΔKv1.3; set-up: expressed in transfected cells; host or cells: HEK293 (transient transfection with pmKate2-KCNA3-del); settings: living HEK293 cells; 2 nM A-HgTx; result in words
Excerpt: To quantitatively characterize formation of complexes between A-HgTx and K-ΔKv1.3 on cell membranes, the confocal images of A-HgTx bound at the membrane of the K-ΔKv1.3 presenting cells were subjected to the treatment procedure as follows. Regions of interest (ROIs) corresponding to the plasma membranes stained with K-ΔKv1.3 were selected. Using a set of these ROIs and a threshold procedure (to null a background signal from pixels without K-ΔKv1.3 signal), the binary (0;1) mask that describes membranous localization of K-ΔKv1.3 was created. The images of K-ΔKv1.3 and A-HgTx distribution were multiplied by the corresponding mask. Next, average intensities of fluorescence of K-ΔKv1.3 (Ici) and A-HgTx (Ili) were calculated for each ROI (i.e., for each i-cell), and a ratio Ri was calculated as follows. Ri = (Ili − Ilb)/(Ici − Icb) (1) where Ilb and Icb are intensities of background signals in the fluorescent images of A-HgTx and Kv1.3 channels, respectively. Calculating Ri (i.e., normalizing A-HgTx intensity to that of K-ΔKv1.3), a correction was introduced for variations in a level of K-ΔKv1.3 expression on the membrane of particular cells. Ri values of 15–20 cells were averaged to obtain the Rav value, and a standard deviation was calculated.
Concentration of A-HgTx was 2 nM. Concentration of pore blockers C varied as indicated in the graph.
When Kd of A-HgTx and IC50 for the studied compound are known, the apparent dissociation constant Kap of complexes between the compound and channel can be calculated using the Cheng-Prusoff equation [50]:Kap = IC50/(1 + L/Kd)(4) where L is the concentration of A-HgTx in the competitive binding experiment.
In A-HgTx binding experiments, cells were incubated with A-HgTx (0.15–4 nM) for 30 min (37 °C, 5% CO2) in the complete medium. In competitive binding experiments, cells were incubated with A-HgTx (2 nM) and selected pore blocker at variable concentrations (0.5–100 nM for recombinant peptides and 1–20 mM for TEA) for 30 min (37 °C, 5% CO2) in the complete medium.
Experiments with HEK293 cells were performed with a laser scanning confocal microscope Leica-SP2 (Leica Microsystems GmbH, Wetzlar, Germany). The water-immersion 63×/1.2 NA HCX PL APO objective was used.
Each experimental point in the curves describing interaction A-HgTx with mKate2-tagged Kv1.3 channels is an average over 15–25 treated images of cells. […]

[9] = 2 nM A-HgTx, living HEK293 cells
[10] = HgTx1 40 nM vs A-HgTx 2 nM, HEK293 cells

T1 sequence (P22001 53-575 limits assumed, stated change not applied): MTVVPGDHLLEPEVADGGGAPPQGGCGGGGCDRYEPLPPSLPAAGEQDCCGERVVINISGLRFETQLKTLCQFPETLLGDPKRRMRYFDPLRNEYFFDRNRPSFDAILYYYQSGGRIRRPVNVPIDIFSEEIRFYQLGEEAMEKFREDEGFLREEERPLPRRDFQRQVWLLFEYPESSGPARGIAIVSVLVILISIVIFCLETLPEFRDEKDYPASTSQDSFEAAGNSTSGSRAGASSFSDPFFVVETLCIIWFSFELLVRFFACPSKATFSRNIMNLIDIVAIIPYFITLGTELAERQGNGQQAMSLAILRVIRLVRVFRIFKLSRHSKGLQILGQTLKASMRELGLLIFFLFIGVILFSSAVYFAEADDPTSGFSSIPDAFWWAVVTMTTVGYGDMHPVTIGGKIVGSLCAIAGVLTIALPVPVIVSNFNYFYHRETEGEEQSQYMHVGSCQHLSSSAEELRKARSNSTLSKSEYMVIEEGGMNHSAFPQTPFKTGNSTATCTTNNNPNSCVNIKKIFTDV
T2 sequence (P22001 whole entry, the tested form may be a part): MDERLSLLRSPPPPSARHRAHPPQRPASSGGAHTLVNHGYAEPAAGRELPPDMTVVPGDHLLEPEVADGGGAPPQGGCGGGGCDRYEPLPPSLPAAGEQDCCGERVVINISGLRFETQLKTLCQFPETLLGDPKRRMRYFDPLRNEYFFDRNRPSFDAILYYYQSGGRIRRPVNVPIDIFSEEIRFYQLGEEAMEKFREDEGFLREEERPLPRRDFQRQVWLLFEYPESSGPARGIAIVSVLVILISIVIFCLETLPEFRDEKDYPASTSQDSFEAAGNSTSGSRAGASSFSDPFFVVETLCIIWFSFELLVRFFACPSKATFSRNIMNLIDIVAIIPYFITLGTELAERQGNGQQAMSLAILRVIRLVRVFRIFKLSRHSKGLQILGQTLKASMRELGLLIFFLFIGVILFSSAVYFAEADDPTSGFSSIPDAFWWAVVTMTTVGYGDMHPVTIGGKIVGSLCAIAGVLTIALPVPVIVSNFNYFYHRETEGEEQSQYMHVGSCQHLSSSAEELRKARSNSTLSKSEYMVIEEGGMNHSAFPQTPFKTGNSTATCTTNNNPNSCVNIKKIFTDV

Structure (SMILES)	binding of A-HgTx at the membrane of K-ΔKv1.3 expressing Neuro-2A cells [1]	binding of A-HgTx to K-ΔKv1.3 [2, 9]	effect of A-HgTx binding on membrane distribution of the Kv1.3 channels ([3]; nano-molar A-HgTx, HEK293 cells, confocal imaging)	dissociation of A-HgTx from the cell membrane on washing ([3]; washing HEK293 cells with fresh medium, data not shown)	binding of A-HgTx at the membrane of intact HEK293 cells (non-specific binding) [4]	binding of A-HgTx to K-Kv1.3 [5, 9]	inhibition at 0.002 µM ([6]; 2 nM A-HgTx, n = 10, read-out: inhibition of K-ΔKv1.3 currents by A-HgTx) [%]	inhibition at 0.01 µM ([6]; 10 nM A-HgTx, n = 3, read-out: inhibition of K-ΔKv1.3 currents by A-HgTx) [%]	binding of A-HgTx to Kv1.3-K [7, 9]	displacement of A-HgTx from K-ΔKv1.3 [2, 10]	displacement of A-HgTx from K-Kv1.3 [5, 10]	displacement of A-HgTx from the complexes with K-ΔKv1.3 [8]	displacement of A-HgTx from Kv1.3-K [7, 10]
CC[C@H](C)[C@@H]1NC(=O)CNC(=O)[C@H](Cc2ccccc2)NC(=O)[C@H](CCC(N)=O)NC(=O)[C@H](C)NC(=O)[C@H](CCCCN)NC(=O)[C@@H]2CSSC[C@@H](C(=O)N[C@@H](Cc3ccc(O)cc3)C(=O)N3CCC[C@H]3C(=O)N[C@@H](Cc3c[nH]cn3)C(=O)O)NC(=O)[C@H](CCCCN)NC(=O)[C@@H]3CSSC[C@H](NC(=O)[C@H](CCC(N)=O)NC(=O)[C@H](CCCCN)NC(=O)[C@@H]4CCCN4C(=O)[C@H](CO)NC(=O)[C@H]([C@@H](C)O)NC(=O)[C@@H](NC(=O)[C@H](CCCCN)NC(=O)[C@@H](NC(=O)[C@H](CC(=O)O)NC(=O)[C@@H](NC(=O)[C@@H](NC(=O)[C@@H](NC(=O)CCCN(C)C(=O)c4ccccc4-c4c5ccc(=N)c(S(=O)(=O)O)c-5oc5c(S(=O)(=O)O)c(N)ccc45)[C@@H](C)O)C(C)C)[C@@H](C)CC)C(C)C)CSSC[C@H](NC(=O)[C@H](CCCCN)NC(=O)[C@H](C)NC(=O)CNC(=O)[C@H](C)NC(=O)[C@H](CCCNC(=N)N)NC1=O)C(=O)N[C@@H](CCSC)C(=O)N[C@@H](CC(N)=O)C(=O)NCC(=O)N[C@@H](CCCCN)C(=O)N3)C(=O)N[C@@H](CC(C)C)C(=O)N1CCC[C@H]1C(=O)N1CCC[C@H]1C(=O)N2 [A-HgTx] (HELM PEPTIDE1{[N=c1ccc2c(-c3ccccc3C(=O)[*:2])c3ccc(N)c(S(=O)(=O)O)c3oc-2c1S(=O)(=O)O].[CN(CCCC(=O)[*:2])[*:1]].T.V.I.D.V.K.C.T.S.P.K.Q.C.L.P.P.C.K.A.Q.F.G.I.R.A.G.A.K.C.M.N.G.K.C.K.C.Y.P.H}$PEPTIDE1,PEPTIDE1,9:R3-31:R3|PEPTIDE1,PEPTIDE1,15:R3-36:R3|PEPTIDE1,PEPTIDE1,19:R3-38:R3$$$V2.0; C-terminus assumed)	bound at the membrane of cells expressing K-ΔKv1.3	bind A-HgTx	does not lead to noticeable changes	rapid (in a few minutes) dissociation	negligible non-specific binding; also recorded: No binding of A-HgTx was observed	bind A-HgTx	42 ± 6	83 ± 3	bind A-HgTx	–	–	–	–
CC[C@H](C)[C@@H]1NC(=O)CNC(=O)[C@H](Cc2ccccc2)NC(=O)[C@H](CCC(N)=O)NC(=O)[C@H](C)NC(=O)[C@H](CCCCN)NC(=O)[C@@H]2CSSC[C@@H](C(=O)N[C@@H](Cc3ccc(O)cc3)C(=O)N3CCC[C@H]3C(=O)N[C@@H](Cc3c[nH]cn3)C(=O)O)NC(=O)[C@H](CCCCN)NC(=O)[C@@H]3CSSC[C@H](NC(=O)[C@H](CCC(N)=O)NC(=O)[C@H](CCCCN)NC(=O)[C@@H]4CCCN4C(=O)[C@H](CO)NC(=O)[C@H]([C@@H](C)O)NC(=O)[C@@H](NC(=O)[C@H](CCCCN)NC(=O)[C@@H](NC(=O)[C@H](CC(=O)O)NC(=O)[C@@H](NC(=O)[C@@H](NC(=O)[C@@H](N)[C@@H](C)O)C(C)C)[C@@H](C)CC)C(C)C)CSSC[C@H](NC(=O)[C@H](CCCCN)NC(=O)[C@H](C)NC(=O)CNC(=O)[C@H](C)NC(=O)[C@H](CCCNC(=N)N)NC1=O)C(=O)N[C@@H](CCSC)C(=O)N[C@@H](CC(N)=O)C(=O)NCC(=O)N[C@@H](CCCCN)C(=O)N3)C(=O)N[C@@H](CC(C)C)C(=O)N1CCC[C@H]1C(=O)N1CCC[C@H]1C(=O)N2 [HgTx1, hongotoxin 1, reference compound] (HELM PEPTIDE1{T.V.I.D.V.K.C.T.S.P.K.Q.C.L.P.P.C.K.A.Q.F.G.I.R.A.G.A.K.C.M.N.G.K.C.K.C.Y.P.H}$PEPTIDE1,PEPTIDE1,7:R3-29:R3|PEPTIDE1,PEPTIDE1,13:R3-34:R3|PEPTIDE1,PEPTIDE1,17:R3-36:R3$$$V2.0; N-terminus and C-terminus assumed)	–	–	–	–	–	–	–	–	–	displaces bound A-HgTx	displaces bound A-HgTx	displaced from the complexes with K-ΔKv1.3	displaces bound A-HgTx
